Like-named read-outs stand apart in the source and are kept apart here.
How the values were obtained:
COX I = target: T1, COX I (Homo sapiens, UniProt P23219); experiment: Inhibition of COX I in vitro (radiometric assay, 14C arachidonic acid, partially purified enzyme); assay type: biochemical
T1 construct: made in house; baculovirus-infected insect cells by own knowledge of the cited Barnett et al. 1994
Protocol: (§1) The COX I and COX II inhibitory activity of compounds of this invention in vitro was determined using partially purified COX I and COX II enzymes, prepared as described in J. Barnett et al., Biochim. Biophys. Acta, 1209:130--139 (1994).
(§2) COX I and COX II samples were diluted with Tris-HCl buffer (50 mM Tris-HCl pH 7.9) containing 2 mM EDTA and 10% glycerol and reconstituted by incubating first with 2 mM phenol for 5 minutes and then with 1 micromolar hematin for an additional 5 minutes. 125 μl of the reconstituted COX I or COX II enzyme were preincubated for 10 minutes at room temperature in a shaking water bath with the compounds of the invention dissolved in 2-15 μl of DMSO or the carrier vehicles (control samples). The enzyme reaction was initiated by adding 25 μl of 1-[14C] arachidonic acid (80,000-100,000 cpm/tube; 20 micromolar final concentration) and the reaction was allowed to continue for an additional 45 seconds. The reaction was terminated by adding 100 μl of 2N HCl and 750 μl water. An aliquot (950 μl) of the reaction mixture was loaded onto a 1 ml C18 Sep-Pak column (J. T. Baker, Phillipsburg, N.J.) which had been previously washed with 2-3 ml methanol and equilibrated with 5-6 ml distilled water. Oxygenated products were quantitatively eluted with 3 ml of acetonitrile/water/acetic acid (50:50:0.1, v/v) and the radioactivity in the eluate determined in a scintillation counter.

COX II = target: T2, COX II (Homo sapiens, UniProt P35354); experiment: Inhibition of COX II in vitro (radiometric assay, 14C arachidonic acid, partially purified enzyme); assay type: biochemical
T2 construct: made in house; baculovirus-infected insect cells by own knowledge of the cited Barnett et al. 1994
T2 sequence (P35354 18-604): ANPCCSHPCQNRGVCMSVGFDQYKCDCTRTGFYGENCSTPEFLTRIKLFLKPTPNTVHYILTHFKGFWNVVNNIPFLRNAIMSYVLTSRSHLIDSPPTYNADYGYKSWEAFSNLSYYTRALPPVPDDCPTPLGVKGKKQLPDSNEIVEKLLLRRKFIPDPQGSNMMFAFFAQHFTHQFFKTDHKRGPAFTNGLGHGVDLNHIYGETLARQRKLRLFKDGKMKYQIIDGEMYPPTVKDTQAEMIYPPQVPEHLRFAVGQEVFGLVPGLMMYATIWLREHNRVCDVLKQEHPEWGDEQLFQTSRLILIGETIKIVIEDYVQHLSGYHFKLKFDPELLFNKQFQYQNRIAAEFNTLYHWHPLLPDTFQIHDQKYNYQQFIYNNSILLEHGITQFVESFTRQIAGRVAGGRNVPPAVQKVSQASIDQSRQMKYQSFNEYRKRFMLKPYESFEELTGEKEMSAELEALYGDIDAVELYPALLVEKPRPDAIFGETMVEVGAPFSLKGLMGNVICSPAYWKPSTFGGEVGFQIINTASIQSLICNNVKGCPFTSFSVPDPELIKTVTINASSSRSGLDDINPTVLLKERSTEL
Protocol: as §1, §2

[1] = partially purified COX I, 20 micromolar arachidonic acid, 10 min preincubation, room temperature, read-out: COX I IC50
[2] = partially purified COX II, 20 micromolar arachidonic acid, 10 min preincubation, room temperature, read-out: COX II IC50

T1 sequence (P23219 24-599): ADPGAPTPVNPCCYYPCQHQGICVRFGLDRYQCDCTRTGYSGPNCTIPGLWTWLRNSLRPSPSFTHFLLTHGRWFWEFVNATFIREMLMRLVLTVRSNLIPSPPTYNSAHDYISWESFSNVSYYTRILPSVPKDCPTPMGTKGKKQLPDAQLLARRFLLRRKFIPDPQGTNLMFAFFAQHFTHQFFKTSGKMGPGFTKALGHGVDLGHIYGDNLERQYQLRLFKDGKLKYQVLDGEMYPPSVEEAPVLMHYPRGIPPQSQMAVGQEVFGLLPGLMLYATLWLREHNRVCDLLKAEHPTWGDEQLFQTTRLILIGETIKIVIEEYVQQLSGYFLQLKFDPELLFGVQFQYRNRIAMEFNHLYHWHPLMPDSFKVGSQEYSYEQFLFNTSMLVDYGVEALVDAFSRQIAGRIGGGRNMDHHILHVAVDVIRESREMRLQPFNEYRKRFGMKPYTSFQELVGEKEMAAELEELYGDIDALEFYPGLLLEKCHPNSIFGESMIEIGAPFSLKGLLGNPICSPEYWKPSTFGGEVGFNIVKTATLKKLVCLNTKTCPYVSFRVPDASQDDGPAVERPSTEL

Row | Compound | IC50 (COX I; [1]) | IC50 (COX II; [2]) | IC50 (COX I) | IC50 (COX II)
1 | COc1ccc(C(=O)c2c(C)cc(Cc3ccc(NS(N)(=O)=O)cc3F)n2C)cc1 [compound 197, 1-{3-Fluoro-4-[5-(4-Methoxybenzoyl)-1,4-dimethyl-1H-pyrrol-2-ylmethyl]phenyl}-sulfamide] | < 0.1 µM | 0.07 µM | – | –
2 | COc1ccc(C(=O)c2ccc(Cc3ccc(NS(N)(=O)=O)cc3C#N)n2C)cc1 [compound 202, 1-{3-Cyano-4-[5-(4-methoxybenzoyl)-1-methyl-1H-pyrrol-2-ylmethyl]phenyl}-sulfamide] | 3.2 µM | 0.05 µM | – | –
3 | CNS(=O)(=O)Nc1ccc(Cc2cc(C)c(C(=O)c3ccc(F)cc3)n2C)c(F)c1 [compound 206, 1-{3-Fluoro-4-[5-(4-fluorobenzoyl)-1,4-dimethyl-1H-pyrrol-2-ylmethyl]phenyl}-3-methylsulfamide] | 0.46 µM | 0.24 µM | – | –
4 | NS(=O)(=O)Nc1ccc(C2CCn3c(C(=O)c4ccccc4)ccc32)c(Cl)c1 (stereo not drawn) [compound 222, 1-{3-Chloro-4-[5-benzoyl-1,2-dihydro-3H-pyrrolizin-1-yl]phenyl}sulfamide] | 0.46 µM | 0.074 µM | – | –
5 | COc1ccc(C(=O)c2ccc3n2CCC3c2ccc(NS(N)(=O)=O)cc2Cl)cc1 (stereo not drawn) [compound 223, 1-{3-Chloro-4-[5-(4-methoxybenzoyl)-1,2-dihydro-3H-pyrrolizin-1-yl]phenyl}sulfamide] | 0.064 µM | 0.029 µM | – | –
6 | Cc1cc(Cc2ccc(NC(=O)N(C)C)cc2)n(C)c1C(=O)c1ccc(Cl)cc1 [compound 226, 1-{1,4-[5-(4-Chlorobenzoyl)-1,4-dimethyl-1H-pyrrol-2-ylmethyl]phenyl}-3,3-dimethylurea] | 100 µM | 2.1 µM | – | –
7 | Cc1cc(Cc2ccc(NC(=O)Nc3ccccc3)cc2)n(C)c1C(=O)c1ccc(Cl)cc1 [compound 227, 1-{1,4-[5-(4-Chlorobenzoyl)-1,4-dimethyl-1H-pyrrol-2-ylmethyl]phenyl}-3-phenylurea] | 2.5 µM | 0.1 µM | – | –
8 | Cc1cc(Cc2ccc(NC(=O)Nc3cccc(Cl)c3)cc2)n(C)c1C(=O)c1ccc(Cl)cc1 [compound 228, 1-{4-[5-(4-Chlorobenzoyl)-1,4-dimethyl-1H-pyrrol-2-ylmethyl]phenyl}-3-(3-chlorophenyl)-urea] | 8.5 µM | 0.1 µM | – | –
9 | CCNC(=S)Nc1ccc(Cc2cc(C)c(C(=O)c3ccc(Cl)cc3)n2C)cc1 [compound 235] | 8.2 µM | 0.17 µM | – | –
10 | Cc1cc(Cc2ccc(NC(=O)CF)cc2)n(C)c1C(=O)c1ccc(Cl)cc1 [compound 243, N-{4-[5-(4-Chlorobenzoyl)-1,4-dimethyl-1H-pyrrol-2-ylmethyl]phenyl}fluoroacetamide] | – | – | 100 µM | 8.9 µM
11 | Cc1cc(Cc2ccc(N)cc2)n(C)c1C(=O)c1ccc(Cl)cc1 [compound 250, 4-[5-(4-Chlorobenzoyl)-1,4-dimethyl-1H-pyrrol-2-ylmethyl]aniline] | 34 µM | 27.4 µM | – | –
12 | CSc1ccc(C(=O)c2c(C)cc(Cc3ccc(N)cc3F)n2C)cc1 [compound 251, 3-Fluoro-4-[5-(4-methylthiobenzoyl)-1,4-dimethyl-1H-pyrrol-2-ylmethyl]aniline] | 310 µM | 0.64 µM | – | –
13 | Cc1cc(Cc2ccc(NS(=O)(=O)CCO)cn2)n(C)c1C(=O)c1ccc(Cl)cc1 [compound 267, N-{2-[5-(4-Chlorobenzoyl)-1,4-dimethyl-1H-pyrrol-2-ylmethyl]pyridin-5-yl}-2-(hydroxy)ethanesulfonamide] | 210 µM | 0.7 µM | – | –
14 | Cc1ccc(C(=O)c2ccc(Cc3ncc(NS(C)(=O)=O)cc3Cl)n2C)cc1 [compound 276, N-{3-Chloro-2-[5-(4-methylbenzoyl)-1-methyl-1H-pyrrol-2-ylmethyl]pyridin-5-yl}-methanesulfonamide] | 60 µM | 0.5 µM | – | –
15 | COc1ccc(C(=O)c2c(C)cc(Cc3ccc(NS(C)(=O)=O)cn3)n2C)cc1 [compound 289, N-{2-[5-(4-Methoxybenzoyl)-1,4-dimethyl-1H-pyrrol-2-ylmethyl]pyridin-5-yl}-methanesulfonamide] | 10.2 µM | 1.5 µM | – | –
16 | Cc1cc(Cc2ccc(NS(=O)(=O)N(C)C)cn2)n(C)c1C(=O)c1ccccc1 [compound 294, 1-{2-[5-Benzoyl-1,4-dimethyl-1H-pyrrol-2-ylmethyl]pyridin-5-yl}-3,3-dimethylsulfamide] | 9.1 µM | 2.6 µM | – | –
17 | Cc1cc(Cc2ccc(NS(N)(=O)=O)cn2)n(C)c1C(=O)c1ccccc1 [compound 295, 1-{2-[5-benzoyl-1,4-dimethyl-1H-pyrrol-2-ylmethyl]pyridin-5-yl}sulfamide] | 0.6 µM | 0.1 µM | – | –
18 | CSc1ccc(C(=O)c2c(C)cc(Cc3ccc(NS(=O)(=O)N(C)C)cn3)n2C)cc1 [compound 296, 1-{2-[5-(4-Methylthiobenzoyl)-1,4-dimethyl-1H-pyrrol-2-ylmethyl]pyridin-5-yl}-3,3-di-methylsulfamide] | 0.21 µM | 0.4 µM | – | –
19 | COc1ccc(C(=O)c2ccc(Cc3ccc(NS(N)(=O)=O)cn3)n2C)cc1 [compound 306, 1-{2-[5-(4-Methoxybenzoyl)-1-methyl-1H-pyrrol-2-ylmethyl]pyridin-5-yl}sulfamide] | 113 µM | 0.64 µM | – | –
20 | Cc1cc(Cc2ccc(NC(=O)N(C)C)cn2)n(C)c1C(=O)c1ccc(Cl)cc1 [compound 308, 1-{2-[5-(4-Chlorobenzoyl)-1,4-dimethyl-1H-pyrrol-2-ylmethyl]pyridin-5-yl}-3,3-di-methylurea] | 650 µM | 8.75 µM | – | –
21 | Cc1cc(Cc2ccc(NC(=O)NCCCl)cn2)n(C)c1C(=O)c1ccc(Cl)cc1 [compound 310, 1-{2-[5-(4-Chlorobenzoyl)-1,4-dimethyl-1H-pyrrol-2-ylmethyl]pyridin-5-yl}-3-(2-chloro-ethyl)urea] | 142 µM | 9.2 µM | – | –
22 | CCNC(=S)Nc1ccc(Cc2cc(C)c(C(=O)c3ccc(Cl)cc3)n2C)nc1 [compound 314, 1-{2-[5-(4-Chlorobenzoyl)-1,4-dimethyl-1H-pyrrol-2-ylmethyl]pyridin-5-yl}-3-ethyl-2-thiourea] | 65 µM | 0.56 µM | – | –
23 | Cc1cc(Cc2ccc(NC(=S)Nc3ccccc3)cn2)n(C)c1C(=O)c1ccc(Cl)cc1 [compound 316, 1-{2-[5-(4-Chlorobenzoyl)-1,4-dimethyl-1H-pyrrol-2-ylmethyl]pyridin-5-yl}-3-phenyl-2-thiourea] | 360 µM | 0.2 µM | – | –
24 | CC(=O)Nc1ccc(Cc2cc(C)c(C(=O)c3ccc(Cl)cc3)n2C)nc1 [compound 329, N-{2-[5-(4-Chlorobenzoyl)-1,4-dimethyl-1H-pyrrol-2-ylmethyl]pyridin-5-yl}acetamide] | 256 µM | 43.7 µM | – | –
25 | Cc1cc(Cc2ccc(NC=O)cn2)n(C)c1C(=O)c1ccc(Cl)cc1 [compound 330, N-{2-[5-(4-Chlorobenzoyl)-1,4-dimethyl-1H-pyrrol-2-ylmethyl]pyridin-5-yl}formamide] | 61.1 µM | 30 µM | – | –
26 | Cc1cc(Cc2ccc(NS(C)(=O)=O)cc2F)n(C)c1C(=O)c1cccs1 [compound 340, N-{3-Fluoro-4-[5-(2-thenoyl)-1,4-dimethyl-1H-pyrrol-2-ylmethyl]phenyl}-methanesulfonamide] | 0.02 µM | 0.06 µM | – | –
27 | N-{2-[5-(4-Methylbenzoyl)-1,4-dimethyl-1H-pyrrol-2-ylmethyl]pyridin-5-yl}- 2-(hydroxy)-ethanesulfonamide hydrochloride [compound 272] | > 1000 µM | 2.1 µM | – | –

— US5952368A, “5-aroylpyrrol-2-ylmethylarene derivatives” (Syntex (U.S.A.) Inc., priority 1997, dated 1999)
